Laboratory results reported in patent US20160067232A1, “METHODS FOR TREATING A STROKE-RELATED SENSORIMOTOR IMPAIRMENT USING AMINOPYRIDINES” (Acorda Therapeutics, Inc., priority 2011, published 2016).

Key:
[1] = system: rats with middle cerebral artery occlusion (MCAO); assay: Forelimb placing test, MCAO rats, dose escalation study (Example 17); type: in vivo, Sprague Dawley rat; conditions: for Forelimb placing compared to vehicle: p<0.001
Description: The limb placing tests were divided into forelimb and hindlimb tests. For the forelimb-placing test, the examiner held the rat close to a tabletop and scored the rat's ability to place the forelimb on the tabletop in response to whisker, visual, tactile, or proprioceptive stimulation. Similarly, for the hindlimb placing test, the examiner assessed the rat's ability to place the hindlimb on the tabletop in response to tactile and proprioceptive stimulation. Together, these tests reflect function and recovery in the sensorimotor systems (De Ryck et al., Brain Res 1992; 573:44-60). Separate sub-scores were obtained for each mode of sensory input and added to give total scores (for the forelimb placing test: 0=normal, 12=maximally impaired; for the hindlimb placing test: 0=normal; 6=maximally impaired). Scores were given in half-point increments (see below). Typically, there is a slow and steady recovery of limb placing behavior during the first month after stroke.
Forelimb placing test (0-12): • whisker placing (0-2); • visual placing (forward (0-2), sideways (0-2)) • tactile placing (dorsal (0-2), lateral (0-2)) • proprioceptive placing (0-2).
For each subtest, animals are scored as followed: • 0.0=immediate response • 0.5=response within 2 seconds • 1.0=response of 2-3 seconds • 1.5=response of >3 seconds • 2.0=no response
4-AP was evaluated for its ability to promote functional sensorimotor improvement following ischemic stroke in rats with stable motor deficits at times remote from their ischemic events. The animal model of ischemic stroke, i.e., the MCAO model, used in this example is the same as the animal model described in Example 2.
In the MCAO model recovery begins to plateau by 4 weeks after MCAO, at which time there are still measurable deficits in sensorimotor function. However, 4 weeks after MCAO there may still be slow continued endogenous recovery.
4-aminopyridine was dissolved in water for injection (WFI, Cellgro) and sterile filtered. […]

[2] = system: rats with middle cerebral artery occlusion (MCAO); assay: Body swing test, MCAO rats, dose escalation study (Example 17); type: in vivo, Sprague Dawley rat; conditions: groups diverged prior to treatment initiation (FIG. 13)
Description: Body Swing: Evaluated at Day −1 (pre-operation), Day 1, Day 7, Day 14, Day 21, Day 28, Day 30, Day 32, Day 42, Day 44, Day 46, Day 56, Day 58, Day 60. Body swing was evaluated by counting head movements to one side or the other when suspended by tail. For this test, the rat was held approximately one (1) inch from the base of its tail. It was then elevated to an inch above a surface of a table. The rat was held in the vertical axis, defined as no more than 10° to either the left or the right side. A swing was recorded whenever the rat moved its head out of the vertical axis to either side. Before attempting another swing, the rat had to return to the vertical position for the next swing to be counted. Thirty (30) total swings were counted. […] Body swing scores were expressed as a percentage of rightward over total swings. […]
4-AP was evaluated for its ability to promote functional sensorimotor improvement following ischemic stroke in rats with stable motor deficits at times remote from their ischemic events. […]
Body Swing: Evaluated at Day −1 (pre-operation), Day 1, Day 7, Day 14, Day 21, Day 28, Day 35, Day 42, Day 49, Day 56, Day 59, Day 62, Day 65, Day 70. […]
Statistical Methods: Changes from pre-treatment baseline values (Day 56) were calculated for each behavioral score at each time point assessed after dosing. […]

SMILES: Nc1ccncc1 [4-aminopyridine]
- Forelimb placing compared to vehicle ([1]; 0.5 mg/kg b.i.d. p.o., Day 59, treatment started Day 56 after MCAO): significantly improved in forelimb placing
- Forelimb placing compared to vehicle ([1]; 1 mg/kg b.i.d. p.o., Day 62): measureable improvement
- Forelimb function compared to vehicle ([1]; 2 mg/kg b.i.d. p.o., Day 65, p<0.0001): significant improvements
- Body swing performance [2]: no conclusions can be drawn
